Data taken from patent US11319324B2, “Pyrazolo-pyrrolo-pyrimidine-dione derivatives as P2X3 inhibitors” (Bayer Aktiengesellschaft, priority 2017, dated 2022).

Experiments:
Assay type in all cases: cell-based
[1] = target: T1, human P2X2/3 receptors (Homo sapiens, UniProt P56373+Q9UBL9); assay: Intracellular calcium measurement, antagonist activity at human P2X2/3 receptors (hP2X23 1321N1), Fluo8; details: for IC50: column 4); 1321N1 cells, human P2X2/3, Fluo8, agonist ATP at EC50; read-out: 4) hP2X2/3 IC50 [nM] (1321N1); for hP2X23/hP2X3* Selectivity (1321N1): ratio of column 4) hP2X2/3 to column 3) hP2X3, 1321N1
T1 construct: expressed in transfected cells; host or cells: human astrocytoma 1321N1 (1312N1 [sic])
T1 sequence (P56373 1-397): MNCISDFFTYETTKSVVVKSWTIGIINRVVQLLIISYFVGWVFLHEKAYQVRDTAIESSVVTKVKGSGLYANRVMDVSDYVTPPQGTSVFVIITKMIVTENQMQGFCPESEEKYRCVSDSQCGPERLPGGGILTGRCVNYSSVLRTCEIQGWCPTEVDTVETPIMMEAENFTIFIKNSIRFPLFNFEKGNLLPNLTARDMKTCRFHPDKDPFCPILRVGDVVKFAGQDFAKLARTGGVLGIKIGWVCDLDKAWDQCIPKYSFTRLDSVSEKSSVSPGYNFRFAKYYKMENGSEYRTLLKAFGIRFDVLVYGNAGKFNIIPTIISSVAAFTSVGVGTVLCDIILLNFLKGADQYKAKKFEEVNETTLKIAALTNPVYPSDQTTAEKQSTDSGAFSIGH
T1 sequence (Q9UBL9 1-471): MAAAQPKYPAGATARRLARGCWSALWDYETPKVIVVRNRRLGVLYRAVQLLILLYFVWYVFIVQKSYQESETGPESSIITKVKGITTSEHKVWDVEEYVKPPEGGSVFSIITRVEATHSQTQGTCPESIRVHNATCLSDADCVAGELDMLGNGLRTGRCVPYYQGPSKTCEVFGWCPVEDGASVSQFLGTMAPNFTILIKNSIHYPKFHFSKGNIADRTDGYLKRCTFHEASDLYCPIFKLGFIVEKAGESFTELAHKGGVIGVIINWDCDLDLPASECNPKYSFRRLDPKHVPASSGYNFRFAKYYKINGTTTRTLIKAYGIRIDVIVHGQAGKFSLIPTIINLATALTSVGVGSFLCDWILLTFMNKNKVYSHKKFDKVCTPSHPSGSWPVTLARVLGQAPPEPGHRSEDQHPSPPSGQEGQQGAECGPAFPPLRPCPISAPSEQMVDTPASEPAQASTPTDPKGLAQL
Procedure: (§1) 3) And 4) Intracellular Calcium Measurement to Compare Antagonist Activity at Human P2X3 Receptors (hP2X3 1321N1) and at Human P2X2/3 Receptors (hP2X23 1321N1)
(§2) The comparison of antagonistic activity at the P2X3 versus the P2X2/3 receptor of the compounds of the invention were performed by use of recombinant cell lines. These cell lines derived originally from the human astrocytoma cell line […] (Macintyre E H, Pontén J, Vatter A E. Acta Pathol Microbiol Scand A. 1972; 80(2):267-83). The cell lines are stably transfected with the human P2X3 receptor forming homotrimeric P2X3 receptors or are co-transfected with P2X2 and P2X3 forming heterotrimeric P2X2/3 receptors. Stimulation of the receptors with the agonist ATP leads to a conformational change of the receptors and influx of extracellular calcium ions through the open ion channel. The cytoplasmatic calcium transient is detected via the calcium sensitive dye Fluo8. The strength of Fluo8 fluorescence signal corresponds to the level of receptor activation. An inhibitor would decrease the signal depending on its potency and concentration. Fluorescence was measured by use of a suitable fluorescence reader.
(§3) On the day before the assay, the cells were plated in culture medium (DMEM high glucose, 10% FCS, 1% MEM non-essential amino acids, 4 mM Glutamax) in 384-well poly-D-lysine coated microtiter plates and kept in a cell incubator (96% humidity, 5% v/v CO2, 37° C.). On the day of the assay medium was exchanged by Fluo8 containing buffer and incubated for 60 minutes. Test compounds were added at various concentrations and plates were incubated for 10 minutes. In the fluorescence reader a 3 seconds baseline measurement was performed and the agonist ATP was applied at EC50 concentration of the respective receptor during constant fluorescence measurement for 120 seconds.

[2] = target: T2, human P2X3 receptor (Homo sapiens, UniProt P56373); assay: Intracellular calcium measurement to assess antagonist activity at human P2X3 receptors (hP2X3 CHO), photina luminescence; parameters: expressed in transfected cells; host or cells: Chinese hamster ovary (CHO) cells; details: column 2), CHO cells, agonist α,β-methylene-ATP at EC50
T2 sequence (P56373 1-397): T1 sequence (P56373 1-397)
How it was run: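 CHO cells stably expressing human P2X3 and mitochondrial photina, plated the day before at 30 °C, then loaded 3 h at 37 °C in 2 mM Ca-tyrode buffer with 5 μg/ml coelenterazine. Agonist-evoked calcium luminescence read immediately; inhibition seen as signal decrease.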

[3] = target: T2, human P2X3 receptor; assay: Intracellular calcium measurement, antagonist activity at human P2X3 receptors (hP2X3 1321N1), Fluo8; parameters: expressed in transfected cells; host or cells: human astrocytoma 1321N1 (1312N1 [sic]); details: column 3); 1321N1 cells, human P2X3, Fluo8, agonist ATP at EC50
Procedure: as §1, §2, §3

Structure (SMILES) | IC50 [1] | hP2X23/hP2X3* Selectivity (1321N1) [1] | IC50 [2] | IC50 [3]
COC[C@H](C)N1Cc2c(n(CC(=O)Nc3ccc(F)cn3)c3cc(N(C)C)nn3c2=O)C1=O [Example 177] | 11500 nM | 397 | 30 nM | 29 nM
CC(=O)Nc1cc2n(CC(=O)Nc3ccc(F)cn3)c3c(c(=O)n2n1)CN(C(C)C)C3=O [Example 282, 2-[2-(acetylamino)-5,8-dioxo-6-(propan-2-yl)-5,6,7,8-tetrahydro-4H-pyrazolo[1,5-a]pyrrolo[3,4-d]pyrimidin-4-yl]-N-(5-fluoropyridin-2-yl)acetamide] | > 32000 nM | >99 | 110 nM | 323 nM
COC[C@H](C)N1Cc2c(n(CC(=O)Nc3ccc(F)cn3)c3cc(C(=O)N4CCCCC4)nn3c2=O)C1=O [Example 198] | 9300 nM | 581 | 35 nM | 16 nM
CCc1cc2n(CC(=O)Nc3ccc(F)cn3)c3c(c(=O)n2n1)CN(Cc1ccccn1)C3=O [Example 108] | 3200 nM | 200 | 18 nM | 16 nM
CCc1cc2n(CC(=O)Nc3ccc(F)cn3)c3c(c(=O)n2n1)CN(C[C@H]1CNCCO1)C3=O [Example 247, 2-{2-ethyl-6-[(2R)-morpholin-2-ylmethyl]-5,8-dioxo-5,6,7,8-tetrahydro-4H-pyrazolo[1,5-a]pyrrolo[3,4-d]pyrimidin-4-yl}-N-(5-fluoropyridin-2-yl)acetamide] | > 32000 nM | >34 | 360 nM | 937 nM
CC(C)NC(=O)Nc1cc2n(CC(=O)Nc3ccc(F)cn3)c3c(c(=O)n2n1)CN(C(C)C)C3=O [Example 290, 2-[5,8-dioxo-6-(propan-2-yl)-2-{[(propan-2-yl)carbamoyl]amino}-5,6,7,8-tetrahydro-4H-pyrazolo[1,5-a]pyrrolo[3,4-d]pyrimidin-4-yl]-N-(5-fluoropyridin-2-yl)acetamide] | 4650 nM | 44 | 115 nM | 105 nM
COC[C@H](C)N1Cc2c(n(CC(=O)Nc3ccc(F)cn3)c3cc(-c4ccncc4C)nn3c2=O)C1=O [Example 152, N-(5-fluoropyridin-2-yl)-2-{6-[(2S)-1-methoxypropan-2-yl]-2-(3-methylpyridin-4-yl)-5,8-dioxo-5,6,7,8-tetrahydro-4H-pyrazolo[1,5-a]pyrrolo[3,4-d]pyrimidin-4-yl}acetamide] | 1460 nM | 328 | 9 nM | 4 nM
CCc1cc2n(CC(=O)Nc3ccc(F)cn3)c3c(c(=O)n2n1)CN(CC1CCNCC1)C3=O.Cl [Example 240] | > 32000 nM | >25 | 628 nM | 1270 nM
CC(C)N1Cc2c(n(CC(=O)Nc3ccc(F)cn3)c3cc(NC(=O)C(F)F)nn3c2=O)C1=O [Example 283] | > 32000 nM | >92 | 165 nM | 347 nM
CCc1cc2n(CC(=O)Nc3ccc(C)cn3)c3c(c(=O)n2n1)CN(C(C)C)C3=O [Example 65] | 10500 nM | 51 | 200 nM | 207 nM
COC[C@H](C)N1Cc2c(n(CC(=O)Nc3ccc(F)cn3)c3cc(C(=O)N(C)CC4CC4)nn3c2=O)C1=O [Example 195] | 8900 nM | 399 | 20 nM | 22 nM
CCc1cc2n(CC(=O)Nc3ccc(F)cn3)c3c(c(=O)n2n1)CN(C[C@@H]1COCCN1C(C)C)C3=O [Example 260] | > 20600 nM | >146 | 108 nM | 141 nM
Cc1cc(C)c(-c2cc3n(CC(=O)Nc4ccc(F)cn4)c4c(c(=O)n3n2)CN(C(C)C)C4=O)cn1 [Example 156] | 295 nM | 78 | 12 nM | 4 nM
CC(C)N1Cc2c(n(CC(=O)Nc3ccc(F)cn3)c3cc(C(=O)N4CCCCC4)nn3c2=O)C1=O [Example 183] | 2300 nM | 118 | 23 nM | 20 nM
CC(C)N1Cc2c(n(CC(=O)Nc3ccc(F)cn3)c3cc(C4CCN(S(C)(=O)=O)C4)nn3c2=O)C1=O (racemic) [Example 270, N-(5-fluoropyridin-2-yl)-2-{2-[(±)-1-(methylsulfonyl)pyrrolidin-3-yl]-5,8-dioxo-6-(propan-2-yl)-5,6,7,8-tetrahydro-4H-pyrazolo[1,5-a]pyrrolo[3,4-d]pyrimidin-4-yl}acetamide] | 6650 nM | 118 | 29 nM | 57 nM
CCc1cc2n(CC(=O)Nc3ccc(F)cn3)c3c(c(=O)n2n1)CN(Cc1cccnc1)C3=O [Example 107] | 5000 nM | 294 | 18 nM | 17 nM
CC(C)N1Cc2c(n(CC(=O)Nc3ccc(F)cn3)c3cc(C(=O)NC4CCCC4)nn3c2=O)C1=O [Example 185] | 3350 nM | 84 | 22 nM | 40 nM
CC(C)N1Cc2c(n(CC(=O)Nc3ccc(F)cn3)c3cc(C(=O)NC(C)(C)C)nn3c2=O)C1=O [Example 186] | > 32000 nM | >17 | 124 nM | 1850 nM
CCc1cc2n(CC(=O)Nc3ccc(F)cn3)c3c(c(=O)n2n1)CN(C[C@@H]1CNCCO1)C3=O [Example 246, 2-{2-ethyl-6-[(2S)-morpholin-2-ylmethyl]-5,8-dioxo-5,6,7,8-tetrahydro-4H-pyrazolo[1,5-a]pyrrolo[3,4-d]pyrimidin-4-yl}-N-(5-fluoropyridin-2-yl)acetamide] | > 32000 nM | >15 | 830 nM | 2200 nM
COC[C@H](C)N1Cc2c(n(CC(=O)Nc3ccc(F)cn3)c3cc(C(=O)NCC(F)F)nn3c2=O)C1=O [Example 197] | 9800 nM | 291 | 19 nM | 34 nM
CCc1cc2n(CC(=O)Nc3ccc(F)cn3)c3c(c(=O)n2n1)CN(CCCOC)C3=O [Example 109] | > 32000 nM | >114 | 133 nM | 280 nM
CCc1cc2n(CC(=O)Nc3ccc(F)cn3)c3c(c(=O)n2n1)CN(C1CCNC1)C3=O.Cl (racemic) [Example 236, 2-{2-ethyl-5,8-dioxo-6-[(±)-pyrrolidin-3-yl]-5,6,7,8-tetrahydro-4H-pyrazolo[1,5-a]pyrrolo[3,4-d]pyrimidin-4-yl}-N-(5-fluoropyridin-2-yl)acetamide hydrochloride (1:1)] | > 32000 nM | >25 | 615 nM | 1280 nM
